According to patent publication US4728726A, “GRF analogs IIIb” (The Salk Institute for Biological Studies, priority 1986, dated 1988):
Square brackets hold non-standard residues; d marks the D form. Ends that are not written are not given here. Peptide text beside a SMILES is read from it. Nle = CCCC[C@H](N)C(=O)O

Tested on: cells of rat pituitary glands
Assay: in vitro assay of growth hormone release from cultured rat pituitary cells (ir GH by radioimmunoassay)
Format: cell-based
Details: potency for GH release relative to standard hGRF(1-40)-OH = 100%; equimolar concentrations; incubation 3 to 4 hours
Procedure: To determine the relative effectiveness of certain representative synthetic peptides to promote the release of growth hormone, in vitro assays are carried out using synthetic hpGRF(1-40)-OH as a standard in side-by-side comparison with equimolar concentrations of the representative analogs which have been synthesized. Cultures are used which include cells of rat pituitary glands removed some three to five days previously. Such cultures are considered optimal for the secretion of growth hormone and are used for the comparative testing, in the general manner described in Vale et al. Endocrinology, 91, 562-572 (1972) and as more particularly described in Vale et al. Endocrinology, 112, 1553-1555 (1983). Incubation with the substance to be tested is carried out for 3 to 4 hours, and aliquots of the culture medium are removed and processed to measure their contents in immunoreactive GH(ir GH) by a well-characterized radioimmunoassay.

Compound | Comparison % [%]
CCCC[C@H](NC(=O)[C@@H](NC(=O)[C@H](CC(=O)O)NC(=O)[C@H](CCC(N)=O)NC(=O)[C@H](CC(C)C)NC(=O)[C@H](CC(C)C)NC(=O)[C@H](CCCCN)NC(=O)[C@H](CCCNC(=N)N)NC(=O)[C@H](C)NC(=O)[C@H](CO)NC(=O)[C@H](CC(C)C)NC(=O)[C@H](CCC(N)=O)NC(=O)CNC(=O)[C@H](CC(C)C)NC(=O)[C@@H](NC(=O)[C@H](CCCCN)NC(=O)[C@H](CCCNC(=N)N)NC(=O)[C@H](Cc1ccc(O)cc1)NC(=O)[C@H](CO)NC(=O)[C@H](CC(N)=O)NC(=O)[C@@H](NC(=O)[C@H](Cc1ccccc1)NC(=O)[C@@H](NC(=O)[C@H](C)NC(=O)[C@H](CC(=O)O)NC(=O)[C@@H](C)NC(=O)[C@@H](N)Cc1ccc(O)cc1)[C@@H](C)CC)[C@@H](C)O)C(C)C)[C@@H](C)CC)C(=O)N[C@@H](CC(N)=O)C(=O)N[C@@H](CCCNC(=N)N)C(=O)NCC [[D-Ala^2, Nle^27, Asn^28]-hGRF(1-29)-NHEt] (H-Y[dA]DAIFTNSYRKVLGQLSARKLLQDI[Nle]NR-NHEt) | 1714
CCCC[C@H](NC(=O)[C@@H](NC(=O)[C@H](CC(=O)O)NC(=O)[C@H](CCC(N)=O)NC(=O)[C@H](CC(C)C)NC(=O)[C@H](CC(C)C)NC(=O)[C@H](CCCCN)NC(=O)[C@H](CCCNC(=N)N)NC(=O)[C@H](C)NC(=O)[C@H](CO)NC(=O)[C@H](CC(C)C)NC(=O)[C@H](CCC(N)=O)NC(=O)CNC(=O)[C@H](CC(C)C)NC(=O)[C@@H](NC(=O)[C@H](CCCCN)NC(=O)[C@H](CCCNC(=N)N)NC(=O)[C@H](Cc1ccc(O)cc1)NC(=O)[C@H](CO)NC(=O)[C@H](CC(N)=O)NC(=O)[C@@H](NC(=O)[C@H](Cc1ccccc1)NC(=O)[C@@H](NC(=O)[C@H](C)NC(=O)[C@H](CC(=O)O)NC(=O)[C@@H](C)NC(=O)[C@@H](N)Cc1ccc(O)cc1)[C@@H](C)CC)[C@@H](C)O)C(C)C)[C@@H](C)CC)C(=O)N[C@@H](CO)C(=O)N[C@@H](CCCNC(=N)N)C(N)=O [[D-Ala^2, Nle^27]-hGRF(1-29)-NH2] | 429
CCCC[C@H](NC(=O)[C@@H](NC(=O)[C@H](CC(=O)O)NC(=O)[C@H](CCC(N)=O)NC(=O)[C@H](CC(C)C)NC(=O)[C@H](CC(C)C)NC(=O)[C@H](CCCCN)NC(=O)[C@H](CCCNC(=N)N)NC(=O)[C@H](C)NC(=O)[C@H](CO)NC(=O)[C@H](CC(C)C)NC(=O)[C@H](CCC(N)=O)NC(=O)CNC(=O)[C@H](CC(C)C)NC(=O)[C@@H](NC(=O)[C@H](CCCCN)NC(=O)[C@H](CCCNC(=N)N)NC(=O)[C@H](Cc1ccc(O)cc1)NC(=O)[C@H](CO)NC(=O)[C@H](CC(N)=O)NC(=O)[C@@H](NC(=O)[C@H](Cc1ccccc1)NC(=O)[C@@H](NC(=O)[C@H](C)NC(=O)[C@H](CC(=O)O)NC(=O)[C@H](C)NC(=O)[C@@H](N)Cc1ccc(O)cc1)[C@@H](C)CC)[C@@H](C)O)C(C)C)[C@@H](C)CC)C(=O)N[C@@H](CO)C(=O)N[C@@H](CCCNC(=N)N)C(N)=O [[Nle^27]-hGRF(1-29)-NH2] | 238
hGRF(1-40)-OH (YADAIFTNSYRKVLGQLSARKLLQDIMSRQQGESNQERGA-OH; UniProt P01286 32-71, looked up, fragment) [synthetic human pancreatic (tumor) GH releasing factor (1-40) free acid, used as standard for this test, reference compound] | 100
CCCC[C@H](NC(=O)[C@@H](NC(=O)[C@H](CCC(=O)O)NC(=O)[C@H](Cc1c[nH]cn1)NC(=O)[C@H](CC(C)C)NC(=O)[C@H](CC(C)C)NC(=O)[C@H](CCCCN)NC(=O)[C@H](CCCNC(=N)N)NC(=O)[C@H](C)NC(=O)[C@H](Cc1ccc(O)cc1)NC(=O)[C@H](CC(C)C)NC(=O)[C@H](CCC(N)=O)NC(=O)CNC(=O)[C@H](CC(C)C)NC(=O)[C@@H](NC(=O)[C@H](CCCNC(=N)N)NC(=O)[C@H](CCCNC(=N)N)NC(=O)[C@H](Cc1ccc(O)cc1)NC(=O)[C@H](CO)NC(=O)[C@H](CO)NC(=O)[C@@H](NC(=O)[C@H](Cc1ccccc1)NC(=O)[C@@H](NC(=O)[C@H](C)NC(=O)[C@H](CC(=O)O)NC(=O)[C@H](C)NC(=O)[C@@H](N)Cc1c[nH]cn1)[C@@H](C)CC)[C@@H](C)O)[C@@H](C)CC)[C@@H](C)CC)C(=O)N[C@H](CC(N)=O)C(=O)N[C@@H](CCCNC(=N)N)C(N)=O [[Nle^27, D-Asn^28]-rGRF(1-29)-NH2] (H-HADAIFTSSYRRILGQLYARKLLHEI[Nle][dN]R-NH2) | 321
